ChEMBL document CHEMBL1629567, “Pharmacodynamics of cidofovir for vaccinia virus infection in an in vitro hollow-fiber infection model system” (Antimicrob Agents Chemother, 2009)
The source made the active and inactive calls. The rule behind the calls is not given here.

Experiments:
Vaccinia virus [1] = assay: Antiviral activity against Vaccinia virus WR harboring the HIV gag gene infected in HeLaS3 cells after 3 to 5 days by plaque assay; format: functional, organism-based; conditions: Orthopoxvirus vaccinia, HeLa S3
Vaccinia virus [2] = assay: Antiviral activity against Vaccinia virus WR harboring the HIV gag gene infected in HeLaS3 cells assessed as inhibition of viral replication in hollow-fiber infection model at >= 50 uM as continuous infusion by plaque assay; format: functional, organism-based; conditions: Orthopoxvirus vaccinia, HeLa S3
Vaccinia virus [3] = assay: Antiviral activity against Vaccinia virus WR harboring the HIV gag gene infected in HeLaS3 cells assessed as inhibition of viral replication in hollow-fiber infection model by plaque assay; format: functional, organism-based; conditions: Orthopoxvirus vaccinia, HeLa S3
Vaccinia virus [4] = assay: Antiviral activity against Vaccinia virus WR harboring HIV gag gene infected in HeLaS3 cells at 3 uM as continuous infusion in hollow-fiber infection model after 72 hrs by ELISA; format: functional, organism-based; conditions: Orthopoxvirus vaccinia, HeLa S3
Vaccinia virus [5] = assay: Antiviral activity against Vaccinia virus WR harboring HIV gag gene infected in HeLaS3 cells at 3 uM administered as intermittent infusion over 1 hr measured after 72 hrs in hollow-fiber infection model by ELISA; format: functional, organism-based; conditions: Orthopoxvirus vaccinia, HeLa S3
Vaccinia virus [6] = assay: Antiviral activity against Vaccinia virus WR harboring HIV gag gene infected in HeLaS3 cells at 100 uM as continuous infusion in hollow-fiber infection model after 72 hrs by ELISA; format: functional, organism-based; conditions: Orthopoxvirus vaccinia, HeLa S3
Vaccinia virus [7] = assay: Antiviral activity against Vaccinia virus WR harboring HIV gag gene infected in HeLaS3 cells at 100 uM administered as intermittent infusion over 1 hr measured in hollow-fiber infection model after 72 hrs by ELISA; format: functional, organism-based; conditions: Orthopoxvirus vaccinia, HeLa S3
Vaccinia virus [8] = assay: Antiviral activity against Vaccinia virus WR harboring HIV gag gene infected in HeLaS3 cells at 30 uM as continuous infusion in hollow-fiber infection model after 72 hrs by ELISA; format: functional, organism-based; conditions: Orthopoxvirus vaccinia, HeLa S3
Vaccinia virus [9] = assay: Antiviral activity against Vaccinia virus WR harboring HIV gag gene infected in HeLaS3 cells at 30 uM administered as intermittent infusion over 1 hr measured in hollow-fiber infection model after 72 hrs by ELISA; format: functional, organism-based; conditions: Orthopoxvirus vaccinia, HeLa S3
Vaccinia virus [10] = assay: Antiviral activity against Vaccinia virus WR harboring HIV gag gene infected in HeLaS3 cells compound administered as bolus infusion equivalent to 100 uM continuous infusion in hollow-fiber infection model after 72 hrs by ELISA; format: functional, Orthopoxvirus vaccinia, HeLa S3

Nc1ccn(C[C@@H](CO)OCP(=O)(O)O)c(=O)n1.O.O [CIDOFOVIR]
EC50 (Vaccinia virus [1]): 30.9 µM
inhibition (Vaccinia virus [2]): Active
IC50 (Vaccinia virus [3]): 38 µM
Activity (Vaccinia virus [4]): inactive
Activity (Vaccinia virus [5]): inactive
Activity (Vaccinia virus [6]): inactive
Activity (Vaccinia virus [7]): inactive
Activity (Vaccinia virus [8]): inactive
Activity (Vaccinia virus [9]): inactive
Activity (Vaccinia virus [10]): 81%
